In one data set the target is T1, NKCC1 (Homo sapiens, UniProt P55011).
T1 construct: host or cells: HEK293
T1 sequence (P55011 1-1212): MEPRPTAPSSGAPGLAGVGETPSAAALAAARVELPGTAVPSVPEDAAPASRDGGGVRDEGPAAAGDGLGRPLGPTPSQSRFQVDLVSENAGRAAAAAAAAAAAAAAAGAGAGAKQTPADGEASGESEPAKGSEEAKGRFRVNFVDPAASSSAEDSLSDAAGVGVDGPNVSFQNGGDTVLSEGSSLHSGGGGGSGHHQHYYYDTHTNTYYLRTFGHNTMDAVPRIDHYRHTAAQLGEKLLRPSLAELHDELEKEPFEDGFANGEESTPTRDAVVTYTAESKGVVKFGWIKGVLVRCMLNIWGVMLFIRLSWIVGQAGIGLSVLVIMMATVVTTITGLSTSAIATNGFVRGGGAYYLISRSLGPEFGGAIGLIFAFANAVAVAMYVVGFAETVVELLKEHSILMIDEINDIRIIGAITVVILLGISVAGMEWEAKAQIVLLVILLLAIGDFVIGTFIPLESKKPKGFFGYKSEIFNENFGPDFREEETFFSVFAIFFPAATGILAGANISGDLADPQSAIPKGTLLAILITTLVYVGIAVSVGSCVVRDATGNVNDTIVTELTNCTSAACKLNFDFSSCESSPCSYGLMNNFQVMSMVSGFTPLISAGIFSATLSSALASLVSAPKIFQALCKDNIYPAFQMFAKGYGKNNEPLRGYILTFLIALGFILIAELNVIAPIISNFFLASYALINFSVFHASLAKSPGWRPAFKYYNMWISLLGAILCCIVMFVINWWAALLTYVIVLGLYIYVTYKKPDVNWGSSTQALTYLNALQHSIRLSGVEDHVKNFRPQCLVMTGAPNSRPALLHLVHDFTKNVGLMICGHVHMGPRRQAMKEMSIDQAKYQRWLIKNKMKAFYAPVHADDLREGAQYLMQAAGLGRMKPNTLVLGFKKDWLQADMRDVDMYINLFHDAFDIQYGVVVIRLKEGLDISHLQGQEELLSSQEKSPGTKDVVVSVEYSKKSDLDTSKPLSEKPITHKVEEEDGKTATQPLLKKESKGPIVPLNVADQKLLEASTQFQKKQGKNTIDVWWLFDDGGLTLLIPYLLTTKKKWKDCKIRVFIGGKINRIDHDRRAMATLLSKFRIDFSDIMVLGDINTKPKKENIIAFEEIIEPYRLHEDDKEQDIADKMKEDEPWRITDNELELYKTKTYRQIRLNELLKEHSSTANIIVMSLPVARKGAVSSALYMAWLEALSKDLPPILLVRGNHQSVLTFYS
As to the kind of experiment: Cl- influx assay in NKCC1-transfected HEK293 cells. It counts as cell-based. To be noted: for inhibition at 10 µM: HEK293, read-out: Inhibition 10 μM Cl- influx (%); for inhibition at 100 µM: HEK293, read-out: Inhibition 100 μM Cl- influx (%). Summed up:
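HEK293 cells co-transfected with human NKCC1 (or mock) plus Cl−-sensitive mbYFPQS, used 48 h later; 30 min compound pre-incubation in Cl−-free hypotonic buffer (HEPES pH 7.4). YFP fluorescence (485/535 nm) followed 60 s after NaCl (74 mM final); mock-subtracted ΔF/F0 decrease expressed as % of DMSO; bumetanide 10 or 100 μM as positive control.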

Data set [1] in a line: In vitro mouse plasma stability. Type of data set: in vitro ADME. The conditions noted are these: mouse plasma at 37 °C; incubated at 5 μM (final DMSO 0.1%); read-out: t1/2 plasma.

In the case of `CN(C)S(=O)(=O)c1cc(C(=O)O)ccc1NCCCCCCCC(F)(F)F` [Compound 1, 3-(-N,N-Dimethylsulfamoyl)-4-(8,8,8-trifluorooctylamino)benzoic Acid], on NKCC1, the inhibition at 10 µM came to 37.1 ± 5% and the inhibition at 100 µM amounted to 88.5 ± 1.7%. For the same molecule, in data set [1], the half-life at 5 μM was over 2 h.

In the case of `CN(C)S(=O)(=O)c1cc(C(=O)O)c(O)cc1NCCCCCCCC(F)(F)F` [Compound 40, 5-(N,N-Dimethylsulfamoyl)-2-hydroxy-4-((8,8,8-trifluorooctyl)amino)benzoic Acid], the half-life at 5 μM in data set [1] was over 2 h.

`CCCCNc1cc(C(=O)O)cc(S(N)(=O)=O)c1Oc1ccccc1` [bumetanide, reference compound]: at NKCC1, the inhibition at 10 µM was found to be 58.8 ± 5.6% and the inhibition at 100 µM worked out at 71.7 ± 7%.

The values above are taken from article PMC8311653, “Design, Synthesis, In Vitro and In Vivo Characterization of Selective NKCC1 Inhibitors for the Treatment of Core Symptoms in Down Syndrome” (Journal of Medicinal Chemistry, 2021).
